Values quoted from earlier work, collected in patent US20130309333A1, “METHOD AND COMPOSITION FOR TREATING FELINE SKIN DISORDERS” (priority 2011, published 2013).

System: cats
Details: general knowledge

Nc1cc(N2CCCCC2)nc(N)[n+]1[O-] [minoxidil]
toxicity to cats: highly toxic to cats
